Values quoted from earlier work, collected in PMC11609630 (Cancer Discovery, 2024).

Test system: patients with TNBC

For “sacituzumab govitecan: TROP2-targeting antibody–drug conjugate”, the “gain in ORR compared with chemotherapy” value (cohort of relapsed patients with TNBC) is given as 30% and the “patients experiencing adverse events of grade 3 or higher” value (such as neutropenia and leukopenia) is given as “more than 50%”.
